Data from patent US10065972B2, “Bicyclic or tricyclic heterocyclic compound” (MITSUBISHI TANABE PHARMA CORPORATION, priority 2014, dated 2018).

Biological target: human recombinant KAT-II (Homo sapiens (Human), UniProt Q8N5Z0)
Assay: KAT-II inhibitory test
Type: biochemical
Conditions: 3.0 μmol/L kynurenine, 37° C., 1 hr, pH 8.0; kynurenic acid quantified by HPLC
In short: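 Kynurenic acid formation was measured by HPLC fluorescence (354 nm excitation, 460 nm emission) against an external standard curve. The substrate was 3.0 μmol/L kynurenine with 10 μmol/L pyridoxal phosphate, at pH 8.0 Tris-acetate, 37 °C for 1 hr, using 2.0 ng/μL amylose-purified N-terminal His/MBP-tagged recombinant enzyme. Duplicate measurements were made per concentration.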

Sequence of human recombinant KAT-II (Q8N5Z0 30-425): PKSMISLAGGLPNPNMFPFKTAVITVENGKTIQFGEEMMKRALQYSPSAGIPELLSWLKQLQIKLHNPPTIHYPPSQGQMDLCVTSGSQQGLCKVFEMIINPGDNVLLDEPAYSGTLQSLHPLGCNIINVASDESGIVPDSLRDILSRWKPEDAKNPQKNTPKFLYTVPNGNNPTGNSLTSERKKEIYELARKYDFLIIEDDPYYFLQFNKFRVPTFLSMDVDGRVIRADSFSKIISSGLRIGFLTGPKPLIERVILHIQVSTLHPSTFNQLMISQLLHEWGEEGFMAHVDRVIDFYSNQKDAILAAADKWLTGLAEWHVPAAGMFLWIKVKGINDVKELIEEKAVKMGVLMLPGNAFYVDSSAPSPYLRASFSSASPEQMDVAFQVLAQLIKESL

| Compound | IC50 [nM] |
| --- | --- |
| Cn1c(C(F)F)nc2sc(N3CCC[C@@H]3C(=O)NCc3ccccc3)nc2c1=O [Example 281, (R)-N-benzyl-1-(5-difluoromethyl-6-methyl-7-oxo-6,7-dihydro-[1,3]thiazolo[5,4-d]pyrimidin-2-yl)pyrrolidine-2-carboxamide] | 27 |
| CN(C)CCCn1c(C(F)(F)F)nc2sc(N3CCC[C@@H]3C(=O)NCc3ccccc3)nc2c1=O [Example 294, (R)-N-benzyl-1-{6-[3-(N′,N′-dimethylamino)propyl]-7-oxo-5-trifluoromethyl-6,7-dihydro-[1,3]thiazolo[5,4-d]pyrimidin-2-yl}pyrrolidine-2-carboxamide] | 170 |
| Cn1c(-c2ncccc2F)nc2sc(N3CCC[C@@H]3C(=O)NCc3ccccc3)nc2c1=O [Example 298, (R)-N-benzyl-1-[5-(3-fluoropyridin-2-yl)-6-methyl-7-oxo-6,7-dihydro-[1,3]thiazolo[5,4-d]pyrimidin-2-yl]pyrrolidine-2-carboxamide] | 26 |
| CCn1c(C(F)F)nc2sc(N3CCC[C@@H]3C(=O)N[C@@H](c3ccccc3)C3CC3)nc2c1=O [Example 299, (R)-N-[(R)-cyclopropyl(phenyl)methyl]-1-(5-difluoromethyl-6-ethyl-7-oxo-6,7-dihydro-[1,3]thiazolo[5,4-d]pyrimidin-2-yl)pyrrolidine-2-carboxamide] | 460 |
| CCn1c(C(F)F)nc2sc(N3CCC[C@@H]3C(=O)N[C@H](COC)c3ccccc3)nc2c1=O [Example 300, (R)-1-(5-difluoromethyl-6-ethyl-7-oxo-6,7-dihydro-[1,3]thiazolo[5,4-d]pyrimidin-2-yl)-N-((S)-2-methoxy-1-phenylethyl)pyrrolidine-2-carboxamide] | 180 |
| CCn1c(C(F)F)nc2sc(N3CCC[C@@H]3C(=O)N[C@@H](c3ccccc3)C(F)(F)F)nc2c1=O [Example 301, (R)-1-(5-difluoromethyl-6-ethyl-7-oxo-6,7-dihydro-[1,3]thiazolo[5,4-d]pyrimidin-2-yl)pyrrolidine-N-((S)-2,2,2-trifluoro-1-phenylethyl)-2-carboxamide] | 2600 |
| CCn1c(C(F)F)nc2sc(N3CCC[C@@H]3C(=O)NCc3ccc4c(c3)OCO4)nc2c1=O [Example 304, (R)-N-[(benzo[1,3]dioxo-5-yl)methyl]-1-(5-difluoromethyl-6-ethyl-7-oxo-6,7-dihydro-[1,3]thiazolo[5,4-d]pyrimidin-2-yl)pyrrolidine-2-carboxamide] | 21 |
| CCn1c(C(F)F)nc2sc(N3CCC[C@@H]3C(=O)NCc3ccco3)nc2c1=O [Example 307, (R)-1-(5-difluoromethyl-6-ethyl-7-oxo-6,7-dihydro-[1,3]thiazolo[5,4-d]pyrimidin-2-yl)-N-[(furan-2-yl)methyl]pyrrolidine-2-carboxamide] | 120 |
| CCn1c(C(F)F)nc2sc(N3CCC[C@@H]3C(=O)NCc3cccs3)nc2c1=O [Example 309, (R)-1-(5-difluoromethyl-6-ethyl-7-oxo-6,7-dihydro-[1,3]thiazolo[5,4-d]pyrimidin-2-yl)-N-[(thiophen-2-yl)methyl]pyrrolidine-2-carboxamide] | 61 |
| CCn1c(C(F)F)nc2sc(N3CCC[C@@H]3C(=O)NCc3cc(C)on3)nc2c1=O [Example 311, (R)-1-(5-difluoromethyl-6-ethyl-7-oxo-6,7-dihydro-[1,3]thiazolo[5,4-d]pyrimidin-2-yl)-N-[(5-methyl-isoxazol-3-yl)methyl]pyrrolidine-2-carboxamide] | 340 |
| CCn1c(C(F)F)nc2sc(N3CCC[C@@H]3C(=O)NCc3cc(C)nn3C)nc2c1=O [Example 313, (R)-1-(5-difluoromethyl-6-ethyl-7-oxo-6,7-dihydro-[1,3]thiazolo[5,4-d]pyrimidin-2-yl)-N-[(2,5-dimethyl-2H-pyrazol-3-yl)methyl]pyrrolidine-2-carboxamide] | 1100 |
| CCn1c(C(F)F)nc2sc(N3CCC[C@@H]3C(=O)NCc3nccs3)nc2c1=O [Example 314, (R)-1-(5-difluoromethyl-6-ethyl-7-oxo-6,7-dihydro-[1,3]thiazolo[5,4-d]pyrimidin-2-yl)-N-[(1,3-thiazol-2-yl)methyl]pyrrolidine-2-carboxamide] | 610 |
| COC1CN(Cc2nc3sc(N4CCC[C@@H]4C(=O)NCc4ccccc4)nc3c(=O)n2C)C1 [Example 321, (R)-N-benzyl-1-{5-[(3-methoxyazetidin-1-yl)methyl]-6-methyl-7-oxo-6,7-dihydro[1,3]thiazolo[5,4-d]pyrimidin-2-yl}pyrrolidine-2-carboxamide] | 70 |
| Cn1c(CN2CCOCC2)nc2sc(N3CCC[C@@H]3C(=O)NCc3ccccc3)nc2c1=O [Example 322, (R)-N-benzyl-1-{6-methyl-5-[(morpholin-4-yl)methyl]-7-oxo-6,7-dihydro[1,3]thiazolo[5,4-d]pyrimidin-2-yl}pyrrolidine-2-carboxamide] | 20 |
| CN(C)Cc1nc2sc(N3CCC[C@@H]3C(=O)NCc3ccccc3)nc2c(=O)n1C [Example 323, (R)-N-benzyl-1-{5-[(N′,N′-dimethylamino)methyl]-6-methyl-7-oxo-6,7-dihydro[1,3]thiazolo[5,4-d]pyrimidin-2-yl}pyrrolidine-2-carboxamide] | 78 |
| Cn1c(CN2Cc3ccccc3C2)nc2sc(N3CCC[C@@H]3C(=O)NCc3ccccc3)nc2c1=O [Example 328, (R)-N-benzyl-1-{5-[(1,3-dihydro-2H-isoindol-2-yl)methyl]-6-methyl-7-oxo-6,7-dihydro[1,3]thiazolo[5,4-d]pyrimidin-2-yl}pyrrolidine-2-carboxamide] | 17 |
| CN(Cc1nc2sc(N3CCC[C@@H]3C(=O)NCc3ccccc3)nc2c(=O)n1C)CC(F)(F)F [Example 333, (R)-N-benzyl-1-[6-methyl-5-{[N′-methyl-N′-(2,2,2-trifluoroethyl)amino]methyl}-7-oxo-6,7-dihydro[1,3]thiazolo[5,4-d]pyrimidin-2-yl]pyrrolidine-2-carboxamide] | 49 |
| CN(C)c1nc2sc(N3CCC[C@@H]3C(=O)NCc3ccccc3)nc2c(=O)n1C [Example 335, (R)-N-benzyl-1-[5-(N′,N′-dimethylamino)-6-methyl-7-oxo-6,7-dihydro[1,3]thiazolo[5,4-d]pyrimidin-2-yl]pyrrolidine-2-carboxamide] | 5.6 |
| Cn1c(N2CCCCC2)nc2sc(N3CCC[C@@H]3C(=O)NCc3ccccc3)nc2c1=O [Example 337, (R)-N-benzyl-1-[6-methyl-7-oxo-5-(piperidin-1-yl)-6,7-dihydro[1,3]thiazolo[5,4-d]pyrimidin-2-yl]pyrrolidine-2-carboxamide] | 4.4 |
| Cn1c(N2CCOCC2)nc2sc(N3CCC[C@@H]3C(=O)NCc3ccccc3)nc2c1=O [Example 339, (R)-N-benzyl-1-[6-methyl-5-(morpholin-4-yl)-7-oxo-6,7-dihydro[1,3]thiazolo[5,4-d]pyrimidin-2-yl]pyrrolidine-2-carboxamide] | 7.9 |
| CC(C)Nc1nc2sc(N3CCC[C@@H]3C(=O)NCc3ccccc3)nc2c(=O)n1C [Example 341, (R)-N-benzyl-1-{6-methyl-7-oxo-5-[(propan-2-yl)amino]-6,7-dihydro[1,3]thiazolo[5,4-d]pyrimidin-2-yl}pyrrolidine-2-carboxamide] | 11 |
